# Laboratory results taken from article PMC4383039 (Science translational medicine, 2015).
# Read-outs that look alike come from different tables or passages of the source. Marks after values point to notes of the source that are not given here.
# Key:
# [1] = molecular target: InhA with cofactor (NADH or NAD+) (Mycobacterium tuberculosis, UniProt P9WGR1); type: binding
# [2] = molecular target: apo-InhA, InhA-NAD+ complex (Mycobacterium tuberculosis, UniProt P9WGR1); type: binding
# [3] = molecular target: T1, InhA (Mycobacterium tuberculosis, UniProt P9WGR1); experiment: biochemical
# [4] = molecular target: InhA-NADH complex (Mycobacterium tuberculosis, UniProt P9WGR1); experiment: biochemical; type: binding
# [5] = test system: Mtb H37Rv; experiment: microbe, parasite or virus in culture; type: cell-based, Mycobacterium tuberculosis; details: for MIC50: Mycobacterium tuberculosis, H37RV
# [6] = test system: mycolates; type: cell-based, Mycobacterium tuberculosis
# [7] = test system: Mtb H37Rv; details: cited from earlier work
# [8] = molecular target: T1, InhA; details: read-out: InhA IC50; cited from earlier work
# [9] = test system: Mtb H37Rv; set-up: species or system BALB/c mice; details: mouse, in vivo
# [10] = test system: in vitro replicating Mtb; type: cell-based, Mycobacterium tuberculosis
# InhA with cofactor (NADH or NAD+), sequence (P9WGR1 whole entry, looked up): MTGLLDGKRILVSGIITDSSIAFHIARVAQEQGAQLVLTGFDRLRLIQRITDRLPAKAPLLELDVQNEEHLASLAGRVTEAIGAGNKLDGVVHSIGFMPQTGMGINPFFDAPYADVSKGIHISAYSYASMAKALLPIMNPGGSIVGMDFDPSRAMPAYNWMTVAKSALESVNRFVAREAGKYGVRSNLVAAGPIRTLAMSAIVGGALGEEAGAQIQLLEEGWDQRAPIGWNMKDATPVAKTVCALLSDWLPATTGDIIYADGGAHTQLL
# InhA-NADH complex, sequence (P9WGR1 whole entry, looked up, one chain of several): as the sequence (P9WGR1 whole entry, looked up) above
# T1 sequence (P9WGR1 whole entry, looked up): as above
# apo-InhA, InhA-NAD+ complex, sequence (P9WGR1 whole entry, looked up, one chain of several): as the sequence (P9WGR1 whole entry, looked up) above
smiles,measurement,setting,value
"CC(C)Cc1cc(O)c(-c2ccccc2)c(=O)[nH]1 [NITD-529, 4-hydroxy-6-isobutyl-3-phenylpyridin-2(1H)-one]","Thermaflor assay Tm, E-NAD+-I",[1],50.3 °C
same,"Thermaflor assay Tm, E-NADH-I",[1],54.7 °C
same,Thermaflor assay ΔTm,[1],4.4 °C
same,ITC binding to InhA,[2],no binding was observed
same,IC50,[3],9.6 ± 0.7 µM
same,ITC (+NADH) N,[4],0.97 ± 0.23
same,Kd,[4],25 ± 7 µM
same,ITC (+NADH) ΔH,[4]; 25°C,13.1 ± 4.202 kcal/mol
same,ITC (+NADH) ΔS,[4]; 25°C,-0.0229 kcal/mol
same,Mtb MIC50,[5],1.54 µM
same,MIC50,"[5]; 120 h, read-out: Mtb MIC50",1.5 µM
same,MIC50,[5]; read-out: Compound MIC50,1.54 µM
same,effect on mycolates,[6],dose-dependent inhibition of mycolates
O=[N+]([O-])c1cn2c(n1)OC[C@@H](OCc1ccc(OC(F)(F)F)cc1)C2 [PA-824],MIC50,[7],0.4 µM
c1ccc(Oc2ccccc2)cc1 [PT70],"Thermaflor assay Tm, E-NAD+-I",[1],66.7 °C
same,"Thermaflor assay Tm, E-NADH-I",[1],60.1 °C
same,Thermaflor assay ΔTm,[1],-6.6 °C
same,IC50,[8],< 0.05 µM
same,Mtb MIC50,[7],11 ^a μM
[H]/N=C(/N)N[C@H]1[C@H](O)[C@@H](O)[C@H](O[C@@H]2O[C@@H](C)[C@](O)(C=O)[C@H]2O[C@@H]2O[C@@H](CO)[C@H](O)[C@@H](O)[C@@H]2NC)[C@@H](N/C(N)=N\[H])[C@@H]1O [streptomycin],MIC50,[5]; read-out: Compound MIC50,0.08 µM
CO[C@H]1/C=C/O[C@@]2(C)Oc3c(C)c(O)c4c(O)c(c(/C=N/N5CCN(C)CC5)c(O)c4c3C2=O)NC(=O)/C(C)=C\C=C\[C@H](C)[C@H](O)[C@@H](C)[C@@H](O)[C@@H](C)[C@H](OC(C)=O)[C@@H]1C [rifampicin],efficacy compared with reference drugs / NITD-916,[9],significantly more potent than NITD-916
NNC(=O)c1ccncc1 [isoniazid],concentration showing rapid killing (in vitro cidal-activity profile),[10],0.5 µM
same,efficacy compared with reference drugs / NITD-916,[9],significantly more potent than NITD-916
same,MIC50,[5]; read-out: Compound MIC50,0.25 µM
same,MIC50,[7],0.33 µM
CCc1cc(C(N)=S)ccn1 [ethionamide],MIC50,[5]; read-out: Compound MIC50,1.66 µM
COc1nc2ccc(Br)cc2cc1[C@@H](c1ccccc1)[C@@](O)(CCN(C)C)c1cccc2ccccc12 [bedaquiline],MIC50,[7],0.05 µM
